Literature values, collected in patent publication US8569273B2, “Ophthalmic formulations of cetirizine and methods of use” (Aciex Therapeutics, Inc., priority 2009, dated 2013).

Details: ophthalmic antihistamine

| Compound | duration of action [h] |
| --- | --- |
| O=C(O)CCCN1CCC(O[C@@H](c2ccc(Cl)cc2)c2ccccn2)CC1 [bepotastine] | 8 |
| C[C@@H]1CN([C@H]2CC[C@](C#N)(c3ccc(F)cc3)CC2)CC[C@]1(C(=O)O)c1ccccc1 [levocabastine] | 2 to 4 |
